What was measured:
AAK1A = target: T1, AAK1A (Homo sapiens, UniProt Q2M2I8); experiment: DSF assay; type: binding; conditions: 20 µM compound
T1 construct: purchased in-house DSF panel (SGC-style construct names; the trailing A/B is a construct suffix)

ABL1 = target: T2, ABL1 (Homo sapiens, UniProt P00519); experiment: Kinobeads selectivity profiling; type: binding; conditions: Jurkat lysate, dose series given in nM, read-out: Kd (apparent dissociation constant, corrected for protein depletion)
T2 construct: endogenous in cells; host or cells: Jurkat (Clone E6.1) cell lysate
T2 sequence (P00519 whole entry): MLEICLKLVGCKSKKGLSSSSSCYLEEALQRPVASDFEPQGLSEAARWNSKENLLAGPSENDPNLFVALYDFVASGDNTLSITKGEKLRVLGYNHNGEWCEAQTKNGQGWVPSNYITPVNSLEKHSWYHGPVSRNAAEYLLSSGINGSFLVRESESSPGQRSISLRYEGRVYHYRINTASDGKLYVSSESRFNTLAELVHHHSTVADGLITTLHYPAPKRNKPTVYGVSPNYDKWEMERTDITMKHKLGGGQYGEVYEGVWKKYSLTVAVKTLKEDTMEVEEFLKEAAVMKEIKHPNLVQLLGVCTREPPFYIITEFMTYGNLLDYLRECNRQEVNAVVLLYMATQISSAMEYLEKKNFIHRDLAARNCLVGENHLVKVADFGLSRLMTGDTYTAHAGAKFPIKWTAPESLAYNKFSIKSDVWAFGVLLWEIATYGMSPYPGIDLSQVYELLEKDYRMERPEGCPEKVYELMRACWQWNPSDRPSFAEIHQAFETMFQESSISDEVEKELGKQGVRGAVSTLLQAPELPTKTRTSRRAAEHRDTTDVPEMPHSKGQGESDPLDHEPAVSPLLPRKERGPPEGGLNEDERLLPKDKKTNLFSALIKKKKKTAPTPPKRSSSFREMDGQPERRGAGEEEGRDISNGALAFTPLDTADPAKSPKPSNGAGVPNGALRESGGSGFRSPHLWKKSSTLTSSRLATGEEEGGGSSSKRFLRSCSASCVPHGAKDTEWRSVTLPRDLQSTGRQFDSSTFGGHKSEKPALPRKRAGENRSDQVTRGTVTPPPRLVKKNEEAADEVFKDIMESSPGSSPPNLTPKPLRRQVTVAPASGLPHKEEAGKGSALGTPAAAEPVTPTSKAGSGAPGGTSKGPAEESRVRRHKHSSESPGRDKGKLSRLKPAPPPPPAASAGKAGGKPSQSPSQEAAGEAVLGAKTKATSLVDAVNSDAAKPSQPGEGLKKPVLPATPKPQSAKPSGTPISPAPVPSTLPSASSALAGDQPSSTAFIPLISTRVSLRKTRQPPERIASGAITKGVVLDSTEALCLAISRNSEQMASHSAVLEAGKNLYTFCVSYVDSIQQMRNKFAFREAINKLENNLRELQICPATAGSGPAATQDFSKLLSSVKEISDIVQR
Experimental: Excitation and emission filters […]
curve. […] Measurements were
Kinobeads selectivity profiling of PROTACs
(Multiplexion, Heidelberg, Germany).
The cell lysate was ultracentrifuged and diluted
NaF, 1 mM DTT, protease inhibitors and phosphatase inhibitors to a final concentration of 5 mg/ml as determined by Bradford assay. For selectivity profiling of compounds the cell lysate (2.5 mg of total proteins per pulldown) was pre-incubated with increasing compound […]
µM) for 45 min at 4 °C in an end-over-end shaker. Subsequently, lysates were incubated with Kinobeads epsilon (17 µL settled beads) for 30 min at 4 °C. To assess the degree of protein depletion from the lysates by Kinobeads, the flow-through of the DMSO control was recovered […]
for a pulldown of pulldown experiment where the lysate was incubated a second time with fresh Kinobeads. Beads were washed in 3 steps with buffer containing 0.4%, 0.2% and no NP40.
Bound proteins were reduced with 50 mM DTT in 8 M Urea, 40 mM Tris-HCl pH 7.4 for 30 min at room temperature. After alkylation with 55 mM chloroacetamide (CAA), the Urea concentration was reduced to 1 – 2 M and proteins were digested using trypsin. Acidified peptides were desalted and concentrated using SepPak tC18 µEluation plates (Waters).
Samples were frozen, dried by vacuum centrifugation and stored at -20 °C.
LC-MS2 analysis. Peptides were measured on a Dionex Ultimate3000 nano HPLC coupled online to an Orbitrap Fusion Lumos (Thermo Fisher Scientific) mass spectrometer.
Peptides were dissolved in 0.1% formic acid and delivered to a trap column (ReproSil-pur C18-AQ, 5 μm, Dr. Maisch, 20 mm × 75 μm, self-packed) at a flow rate of 5 μL/min in LC solvent A (0.1 % formic acid).4 After 10 min of loading, peptides were transferred to an analytical column (ReproSil Gold C18-AQ, 3 μm, Dr. Maisch, 400 mm × 75 μm, self-packed) and separated using […]
acetonitrile) in LC solvent A.
The Orbitrap Fusion Lumos was operated as follows: positive polarity; spray voltage 2.1 kV, […]
A full-scan (MS1) was recorded from 360 to 1300 m/z with a resolution of 60,000 in the Orbitrap in profile mode. The MS1 AGC target was set to 4e5 and the maxIT was set to 50 ms, RF lens value was set to 50%. Based on the full scans, precursors were targeted for the MS/MS scans […]
intensity exceeded 2.5e4. The dynamic exclusion was set to 30 sec and exclude isotopes was switched on. The MS2 quadrupole isolation window was set to 1.7 m/z. Peptide fragmentation occurred in the ion routing multipole (IRM) by HCD with a fixed collision energy mode, the […]

T1 sequence (Q2M2I8 27-365): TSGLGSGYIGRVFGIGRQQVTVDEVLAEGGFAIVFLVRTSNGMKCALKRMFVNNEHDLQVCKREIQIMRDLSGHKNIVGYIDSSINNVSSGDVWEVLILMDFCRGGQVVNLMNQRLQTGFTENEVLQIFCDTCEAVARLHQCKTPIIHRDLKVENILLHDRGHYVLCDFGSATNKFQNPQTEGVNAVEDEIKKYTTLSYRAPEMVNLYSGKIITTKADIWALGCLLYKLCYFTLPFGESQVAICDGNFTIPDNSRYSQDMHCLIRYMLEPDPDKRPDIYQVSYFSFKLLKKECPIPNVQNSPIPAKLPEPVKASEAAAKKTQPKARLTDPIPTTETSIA

ΔTm at 20 µM (AAK1A) [°C] | Kd (ABL1) [nM] | SMILES
13.2 | 2200 | CC(C)(C)OC(=O)NCCOCCOCCOCCOCCC(=O)N1CCN(c2cc(Nc3cc(C4CC4)[nH]n3)nc(Nc3ccc(CC#N)cc3)n2)CC1 [4-L]
12.1 | 4950 | CC(C)(C)OC(=O)NCCCOCCOCCOCCCNC(=O)c1cc(Nc2cc(C3CC3)[nH]n2)nc(Nc2ccc(CC#N)cc2)n1 [5-L]
10.1 | – | CCOC(=O)c1cc(Nc2cc(C3CC3)[nH]n2)nc(Nc2ccc(CC#N)cc2)n1 [compound 5]
